In paper PMC12332157, “A preclinical study on the influence of linkers in [^68Ga]Ga-NOTA-X-RM26 radiotracers for PET imaging of GRPR expression” (EJNMMI Research, 2025):
Where two headings read alike, the source gives them in different places. Values belong to the compound of their own block, whether it stands above or below them. Starred links: 1 amine or outer side, 2 acyl side, 3 side chain; linkers in the order of their positions; H or OH if unused. Non-standard residues stand in square brackets, D forms with d. Residues, ends and D or L forms follow the SMILES beside them. *: point of attachment. NOTA = O=C(O)CN1CCN(CC(=O)O)CCN(CC(=O)*)CC1; Sta = CC(C)C[C@H](N)[C@@H](O)CC(=O)O; X2 = O=C(COc1cccc(CN[*:1])c1)[*:2]; X1 = O=C(Cc1ccccc1CCN[*:1])[*:2]; X3 = O=C(COc1ccccc1CN[*:1])[*:2]

Experiments:
GRPR = target: T1, GRPR (Homo sapiens, UniProt P30550); assay: Competitive binding against [125I]I-Tyr4-bombesin on PC-3 cells; details: natGa-loaded peptide vs [125I]I-Tyr4-bombesin, 5 h at 4 °C
T1 construct: endogenous in cells; host or cells: PC-3 human prostate cancer cells
Procedure: In short, 30 nmol of the respective peptide was mixed with 10 µL of 9 mM GaCl3, 150 µL of 0.1 M HCl, and 250 µL of 1 M sodium acetate (pH 4.5). The mixture was then incubated at 70 °C for 60 min.
PC-3 cells were seeded in 12-well plates at 10^5 cells per well density and incubated overnight. Then, the media was aspirated, and cells were washed with 500 µL of cold PBS buffer, containing 1% w/v bovine serum albumin (PBS/BSA buffer). Then the cells were treated with 350 µL of cold PBS/BSA buffer, 50 µL of the metalated ligand at different concentrations (from 0 to 1000 nM), and 100 µL of [^125I]I-Tyr^4-bombesin (PerkinElmer, Waltham, MA, USA) in PBS/1% BSA buffer, at 24.6 fmol/well concentration. Cells were incubated for 5 h at 4°C to reach equilibrium of binding. After that, the supernatant was removed, cells were washed with cold PBS buffer containing 1% BSA, and collected using 1 mL of 1 M NaOH heated to 37 °C. The radioactivity was measured by a Wizard 2480 gamma counter (PerkinElmer, Waltham, MA, USA). The experiments were performed in triplicates (n = 3) and the data were fitted to the curves with a nonlinear regression model in GraphPad Prism 7.

[1] = test system: PC-3 xenograft bearing BALB/c nu/nu mice; assay: Biodistribution in BALB/c nu/nu mice bearing PC-3 xenografts; type: in vivo; details: 2 h p.i.
Procedure: (§1) Female BALB/c nu/nu mice of 18–22 g weight were used in the study. All procedures with animals were conducted in accordance with the EU Directive 2010/63/EU for animal experiments and Swedish national legislation concerning the protection of laboratory animals. The experiments were approved by the ethics committee for animal research in Uppsala (Sweden) with permit number 5.8.18–00473/2021. Animals were housed in individually ventilated cages, under a 12-h light/dark cycle with free access to food and water.
(§2) For tumor inoculation, 8·10^6 PC-3 cells in 100 µL PBS were injected subcutaneously into the right hind leg of mice. Mouse weight and tumor size were measured every 2–3 days, and tumor volume was estimated by ellipsoid approximation. A predefined humane endpoint of the experiment was either a 15% weight loss or a tumor volume of 1000 mm^3, neither of which was reached.
(§3) Four weeks after tumor cell implantation, mice were randomized and divided into 6 groups (4 animals / group): 3 of them received treatment with ^68Ga-radiolabeled peptides, while the other 3 received the same peptides in addition to 5 nmol of non-labeled NOTA-PEG2-RM26 peptide for GRPR-blocking. Peptides were injected intravenously via the tail veins at a dose of 50 pmol (700 kBq radioactivity dose).
(§4) At 2 h post injection, mice were sacrificed by overdose of Ketamine/Xylazine anesthesia, and blood was collected by heart puncture. Then, liver, spleen, lungs, pancreas, kidneys, small intestine, stomach, tail, femur bones, tumor and muscle from the opposite legs were collected, weighed, and radioactivity was measured using a Wizard 2480 gamma counter. Data are presented as percentages of injected activity per gram of tissue (%IA/g).

[2] = as above; type: in vivo; details: female, BALB/c nu/nu, mouse, iv, total radioactivity
Procedure: as §1, §2, §3, §4

[3] = Complex stability of 68Ga-labeled peptides in PBS or EDTA solution in PBS (iTLC); type: physicochemical; details: n = 3, mean ± sd
[4] = Octanol-water distribution coefficient (LogD); type: physicochemical; details: n-octanol/PBS; n = 3; mean ± sd
Procedure: Octanol-water distribution coefficient (LogD) was determined by adding 10 pmol of radiopeptide to an Eppendorf tube containing 500 µL of phosphate-buffered saline (PBS) and 500 µL of n-octanol. Each tube was vortexed for 2 min and centrifuged at 6000 g for 5 min. Three 100 µL fractions were collected from each phase, and their radioactivity was measured.

T1 sequence (P30550 whole entry): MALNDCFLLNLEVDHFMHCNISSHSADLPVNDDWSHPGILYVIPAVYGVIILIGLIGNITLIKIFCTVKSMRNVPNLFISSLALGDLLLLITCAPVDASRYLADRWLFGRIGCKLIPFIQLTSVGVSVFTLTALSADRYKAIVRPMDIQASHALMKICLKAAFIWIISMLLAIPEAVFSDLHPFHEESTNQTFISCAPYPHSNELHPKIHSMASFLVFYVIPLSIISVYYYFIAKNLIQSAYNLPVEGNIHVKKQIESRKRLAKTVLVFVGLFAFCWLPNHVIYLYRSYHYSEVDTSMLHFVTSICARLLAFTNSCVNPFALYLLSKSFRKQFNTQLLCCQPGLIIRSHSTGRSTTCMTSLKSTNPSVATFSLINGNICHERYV

Compound: CC(=O)N[C@@H](CCCCNC(=O)CN1CCN(CC(=O)O)CCN(CC(=O)O)CC1)C(=O)NCc1cccc(OCC(=O)N[C@H](Cc2ccccc2)C(=O)N[C@@H](CCC(N)=O)C(=O)N[C@@H](Cc2c[nH]c3ccccc23)C(=O)N[C@@H](C)C(=O)N[C@H](C(=O)NCC(=O)N[C@@H](Cc2c[nH]cn2)C(=O)N[C@@H](CC(C)C)[C@@H](O)CC(=O)N[C@@H](CC(C)C)C(N)=O)C(C)C)c1 [^natGa-NOTA-mMA-RM26, metal not drawn] (Ac-K(NOTA)[X2][dF]QWAVGH[Sta]L-NH2)
- IC50 (GRPR): 0.27 nM

Compound: CC(=O)N[C@@H](CCCCNC(=O)CN1CCN(CC(=O)O)CCN(CC(=O)O)CC1)C(=O)NCCc1ccccc1CC(=O)N[C@H](Cc1ccccc1)C(=O)N[C@@H](CCC(N)=O)C(=O)N[C@@H](Cc1c[nH]c2ccccc12)C(=O)N[C@@H](C)C(=O)N[C@H](C(=O)NCC(=O)N[C@@H](Cc1c[nH]cn1)C(=O)N[C@@H](CC(C)C)[C@@H](O)CC(=O)N[C@@H](CC(C)C)C(N)=O)C(C)C [NOTA-oET-RM26] (Ac-K(NOTA)[X1][dF]QWAVGH[Sta]L-NH2)
- peptide accumulation in the liver and lungs [1]: lowest activity uptake
- tumor-to-liver ratio [1]: best tumor-to-liver ratio

Compound: CC(=O)N[C@@H](CCCCNC(=O)CN1CCN(CC(=O)O)CCN(CC(=O)O)CC1)C(=O)NCCc1ccccc1CC(=O)N[C@H](Cc1ccccc1)C(=O)N[C@@H](CCC(N)=O)C(=O)N[C@@H](Cc1c[nH]c2ccccc12)C(=O)N[C@@H](C)C(=O)N[C@H](C(=O)NCC(=O)N[C@@H](Cc1c[nH]cn1)C(=O)N[C@@H](CC(C)C)[C@@H](O)CC(=O)N[C@@H](CC(C)C)C(N)=O)C(C)C [[^68Ga]Ga-NOTA-oET-RM26, metal not drawn] (Ac-K(NOTA)[X1][dF]QWAVGH[Sta]L-NH2)
- tissue uptake at 2 h ([2]; blood, 50 pmol, 2 h p.i., i.v., read-out: Radionuclide concentration, Blood): 0.54 ± 0.01 %ID/g
- tissue uptake at 2 h ([2]; blood, Blockade (co-injection of NOTA-PEG2-RM26), 2 h, read-out: Radionuclide concentration, Blood): 0.31 ± 0.04 %ID/g
- tissue uptake at 2 h ([2]; bone, 50 pmol, 2 h p.i., i.v., read-out: Radionuclide concentration, Bone): 0.44 ± 0.04 %ID/g
- tissue uptake at 2 h ([2]; bone, Blockade (co-injection of NOTA-PEG2-RM26), 2 h, read-out: Radionuclide concentration, Bone): 0.33 ± 0.07 %ID/g
- tissue uptake dose at 2 h ([2]; carcass, 50 pmol, 2 h p.i., i.v., read-out: Radionuclide quantity, Carcass): 4.1 ± 1.1 %ID
- tissue uptake dose at 2 h ([2]; carcass, Blockade (co-injection of NOTA-PEG2-RM26), 2 h, read-out: Radionuclide quantity, Carcass): 3.1 ± 1.8 %ID
- tissue uptake dose at 2 h ([2]; gastrointestinal tract, 50 pmol, 2 h p.i., i.v., read-out: Radionuclide quantity, Gastrointestinal tract): 5.9 ± 0.5 %ID
- tissue uptake dose at 2 h ([2]; gastrointestinal tract, Blockade (co-injection of NOTA-PEG2-RM26), 2 h, read-out: Radionuclide quantity, Gastrointestinal tract): 3.5 ± 0.7 %ID
- tissue uptake at 2 h ([2]; kidneys, 50 pmol, 2 h p.i., i.v., read-out: Radionuclide concentration, Kidneys): 5.9 ± 0.6 %ID/g
- tissue uptake at 2 h ([2]; kidneys, Blockade (co-injection of NOTA-PEG2-RM26), 2 h, read-out: Radionuclide concentration, Kidneys): 3.3 ± 2.3 %ID/g
- tissue uptake at 2 h ([2]; liver, 50 pmol, 2 h p.i., i.v., read-out: Radionuclide concentration, Liver): 1.9 ± 0.2 %ID/g
- tissue uptake at 2 h ([2]; liver, Blockade (co-injection of NOTA-PEG2-RM26), 2 h, read-out: Radionuclide concentration, Liver): 1.3 ± 0.1 %ID/g
- tissue uptake at 2 h ([2]; lungs, 50 pmol, 2 h p.i., i.v., read-out: Radionuclide concentration, Lungs): 0.45 ± 0.27 %ID/g
- tissue uptake at 2 h ([2]; lungs, Blockade (co-injection of NOTA-PEG2-RM26), 2 h, read-out: Radionuclide concentration, Lungs): 0.37 ± 0.02 %ID/g
- tissue uptake at 2 h ([2]; muscle, 50 pmol, 2 h p.i., i.v., read-out: Radionuclide concentration, Muscle): 0.15 ± 0.01 %ID/g
- tissue uptake at 2 h ([2]; muscle, Blockade (co-injection of NOTA-PEG2-RM26), 2 h, read-out: Radionuclide concentration, Muscle): 0.15 ± 0.13 %ID/g
- tissue uptake at 2 h ([2]; pancreas, 50 pmol, 2 h p.i., i.v., read-out: Radionuclide concentration, Pancreas): 11.7 ± 2.4 %ID/g
- tissue uptake at 2 h ([2]; pancreas, Blockade (co-injection of NOTA-PEG2-RM26), 2 h, read-out: Radionuclide concentration, Pancreas): 1.2 ± 0.2 %ID/g
- tissue uptake at 2 h ([2]; small intestine, 50 pmol, 2 h p.i., i.v., read-out: Radionuclide concentration, Small Intestines): 2.4 ± 0.4 %ID/g
- tissue uptake at 2 h ([2]; small intestine, Blockade (co-injection of NOTA-PEG2-RM26), 2 h, read-out: Radionuclide concentration, Small Intestines): 0.33 ± 0.24 %ID/g
- tissue uptake at 2 h ([2]; spleen, 50 pmol, 2 h p.i., i.v., read-out: Radionuclide concentration, Spleen): 0.46 ± 0.06 %ID/g
- tissue uptake at 2 h ([2]; spleen, Blockade (co-injection of NOTA-PEG2-RM26), 2 h, read-out: Radionuclide concentration, Spleen): 0.28 ± 0.07 %ID/g
- tissue uptake at 2 h ([2]; stomach, 50 pmol, 2 h p.i., i.v., read-out: Radionuclide concentration, Stomach): 2.6 ± 0.6 %ID/g
- tissue uptake at 2 h ([2]; stomach, Blockade (co-injection of NOTA-PEG2-RM26), 2 h, read-out: Radionuclide concentration, Stomach): 0.55 ± 0.19 %ID/g
- tissue uptake dose at 2 h ([2]; total (sum of the measured activities), 50 pmol, 2 h p.i., i.v., sum of the measured activities, read-out: Radionuclide quantity, Total): 16.3 ± 1.6 %ID
- tissue uptake dose at 2 h ([2]; total, Blockade (co-injection of NOTA-PEG2-RM26), 2 h, read-out: Radionuclide quantity, Total): 8.5 ± 3 %ID
- tissue uptake at 2 h ([2]; tumor (PC-3 xenograft), 50 pmol, 2 h p.i., i.v., PC-3 xenograft, read-out: Radionuclide concentration, Tumor): 11.2 ± 3.4 %ID/g
- tissue uptake at 2 h ([2]; tumor (PC-3 xenograft), Blockade (co-injection of NOTA-PEG2-RM26), 2 h, read-out: Radionuclide concentration, Tumor): 1.3 ± 0.2 %ID/g
- remaining at 1 h, 1 µM ([3]; PBS buffer, pH 7.4, incubation at 37 °C for 1 h in PBS): 95 ± 2.9%
- Stability in PBS with EDTA ([3]; incubation at 37 °C for 1 h in PBS with 1000-fold molar excess of EDTA, in % (unit assumed)): 92.6 ± 4.7
- logD [4]: -0.97 ± 0.01

Further lines, results first:

- IC50 (GRPR): 3.4 nM
Compound: CC(=O)N[C@@H](CCCCNC(=O)CN1CCN(CC(=O)O)CCN(CC(=O)O)CC1)C(=O)NCCc1ccccc1CC(=O)N[C@H](Cc1ccccc1)C(=O)N[C@@H](CCC(N)=O)C(=O)N[C@@H](Cc1c[nH]c2ccccc12)C(=O)N[C@@H](C)C(=O)N[C@H](C(=O)NCC(=O)N[C@@H](Cc1c[nH]cn1)C(=O)N[C@@H](CC(C)C)[C@@H](O)CC(=O)N[C@@H](CC(C)C)C(N)=O)C(C)C [^natGa-NOTA-oET-RM26, metal not drawn] (Ac-K(NOTA)[X1][dF]QWAVGH[Sta]L-NH2)

- IC50 (GRPR): 1.3 nM
Compound: CC(=O)N[C@@H](CCCCNC(=O)CN1CCN(CC(=O)O)CCN(CC(=O)O)CC1)C(=O)NCc1ccccc1OCC(=O)N[C@H](Cc1ccccc1)C(=O)N[C@@H](CCC(N)=O)C(=O)N[C@@H](Cc1c[nH]c2ccccc12)C(=O)N[C@@H](C)C(=O)N[C@H](C(=O)NCC(=O)N[C@@H](Cc1c[nH]cn1)C(=O)N[C@@H](CC(C)C)[C@@H](O)CC(=O)N[C@@H](CC(C)C)C(N)=O)C(C)C [^natGa-NOTA-oMA-RM26, metal not drawn] (Ac-K(NOTA)[X3][dF]QWAVGH[Sta]L-NH2)
